Test results taken from patent US9868736B2, “Deubiquitinase inhibitors and methods for use of the same” (THE REGENTS OF THE UNIVERSITY OF MICHIGAN, priority 2013, dated 2018).
≈ marks a conversion by molar mass, not a printed value. Entries after “also recorded” stand apart in the source; their conditions may differ.

How the values were obtained:
[1] = target: Usp9x (Homo sapiens, UniProt Q93008); assay: Usp9x activity, Mcl-1 and PARP in tumors extracted from treated mice; assay type: in vivo, NSG mice; set-up: from tissue; host or cells: MM1.S xenograft tumour extracted from NSG mice; details: 15 mg/kg, tumors extracted one hour after last injection
Protocol: To analyze that potential, mice were euthanized one hour after their last injection and tumors were extracted, photographed and flash-frozen on dry ice. Tumor tissue was sheared in liquid nitrogen, ground to a powder with a mortar and pestle and proteins extracted to assess Usp9x activity in 20 μg of protein from each tumor specimen. Tumors extracted from control and 15 mg/kg G9 treated mice were assessed for Usp9x activity as described above. […] Also shown are the effects of treatment on Usp9x and Usp24 protein, the latter a DUB closely related to Usp9x. The effect of G9 on the Usp9x substrate Mcl-1, and on cleavage of caspase substrate PARP, are also shown.

[2] = test system: Mcl-1, PARP; assay: Mcl-1 level and PARP cleavage in treated tumor cells; assay type: cell-based
[3] = target: T1, catalytic domain of Usp9x (Usp9xCD) (Homo sapiens, UniProt Q93008); assay: Usp9xCD Ub-AMC enzyme assay; assay type: biochemical; details: screen of 210 structures
T1 construct: DNA corresponding to amino acids 1553-1960 of human Usp9x; His6-Smt3 (SUMO) fusion tag, ULP1-cleavable (N, cleaved yes); made in house; host or cells: E. coli
T1 sequence (Q93008 1553-1960): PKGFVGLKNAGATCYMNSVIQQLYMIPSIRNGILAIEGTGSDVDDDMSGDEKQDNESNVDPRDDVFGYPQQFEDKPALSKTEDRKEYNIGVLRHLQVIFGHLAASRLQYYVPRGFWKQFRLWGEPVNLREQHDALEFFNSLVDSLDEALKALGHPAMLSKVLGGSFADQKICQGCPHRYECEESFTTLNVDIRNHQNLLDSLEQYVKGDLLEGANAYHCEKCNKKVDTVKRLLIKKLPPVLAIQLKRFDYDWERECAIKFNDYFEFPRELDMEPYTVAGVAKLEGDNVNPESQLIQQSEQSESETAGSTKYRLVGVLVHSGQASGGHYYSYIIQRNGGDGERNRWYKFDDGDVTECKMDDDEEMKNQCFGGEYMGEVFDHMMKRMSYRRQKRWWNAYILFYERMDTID
Protocol: A series of chemical modifications were initiated to increase our structure activity relationship (SAR) analysis of inhibitors. […] The DNA was cloned into a ULP1-protease cleavable N-terminal His6-Smt3-fusion tag expression vector, derived from pET-28. Protein expression was induced at OD600 2.0, in TB media with Kanamycin overnight at 16° C. Cells were harvested and flash frozen before use. […] Protein was concentrated to roughly 20-40 mg/ml before aliquots were flash-frozen. All steps were performed in the presence of reducing agents, either BME, DTT, or TCEP.
Purified recombinant enzyme in buffer containing 2 mM DTT was buffer exchanged into 25 mM Tris-HCl, 50 mM NaCl and 1 mg/ml BSA using a spin column. […] IC50 values were estimated by integrating the slope of each reaction using GraphPad 6.
Two hundred and ten (210) novel chemical structures were screened for Usp9xCD inhibitory activity using this assay. […] Fluorescent scans were used to assess Usp9xCD inhibitory activity in this enzyme assay for all compounds of interest. Each assay was performed in duplicate and the linear region of each reaction curve was used to calculate IC50 values for Usp9xCD inhibition which are tabulated in Table 1.

[4] = aqueous solubility; assay type: physicochemical
[5] = test system: murine norovirus; assay: antiviral screen against murine norovirus in macrophages; assay type: cell-based; details: RAW cells, Swiss Webster and Balb/c bone marrow derived macrophages, FIG. 8
From the text: G9 was screened in RAW cells, Swiss Webster bone marrow derived macrophages and Balb/c bone marrow derived macrophages, compared to vehicle (DMSO), prior compound WP1130 and compound VM030. […] VM030 has a structure of […]

[6] = test system: Sindbis virus, Tulane virus, LaCrosse virus, Norwalk virus replicon; assay: antiviral screen against a variety of viruses; assay type: cell-based; details: Vero (Sindbis), LLC-MK (Tulane), Be2-c (LaCrosse), Norwalk virus replicon-containing cells, FIG. 9

Chain of Usp9x (Q93008 whole entry): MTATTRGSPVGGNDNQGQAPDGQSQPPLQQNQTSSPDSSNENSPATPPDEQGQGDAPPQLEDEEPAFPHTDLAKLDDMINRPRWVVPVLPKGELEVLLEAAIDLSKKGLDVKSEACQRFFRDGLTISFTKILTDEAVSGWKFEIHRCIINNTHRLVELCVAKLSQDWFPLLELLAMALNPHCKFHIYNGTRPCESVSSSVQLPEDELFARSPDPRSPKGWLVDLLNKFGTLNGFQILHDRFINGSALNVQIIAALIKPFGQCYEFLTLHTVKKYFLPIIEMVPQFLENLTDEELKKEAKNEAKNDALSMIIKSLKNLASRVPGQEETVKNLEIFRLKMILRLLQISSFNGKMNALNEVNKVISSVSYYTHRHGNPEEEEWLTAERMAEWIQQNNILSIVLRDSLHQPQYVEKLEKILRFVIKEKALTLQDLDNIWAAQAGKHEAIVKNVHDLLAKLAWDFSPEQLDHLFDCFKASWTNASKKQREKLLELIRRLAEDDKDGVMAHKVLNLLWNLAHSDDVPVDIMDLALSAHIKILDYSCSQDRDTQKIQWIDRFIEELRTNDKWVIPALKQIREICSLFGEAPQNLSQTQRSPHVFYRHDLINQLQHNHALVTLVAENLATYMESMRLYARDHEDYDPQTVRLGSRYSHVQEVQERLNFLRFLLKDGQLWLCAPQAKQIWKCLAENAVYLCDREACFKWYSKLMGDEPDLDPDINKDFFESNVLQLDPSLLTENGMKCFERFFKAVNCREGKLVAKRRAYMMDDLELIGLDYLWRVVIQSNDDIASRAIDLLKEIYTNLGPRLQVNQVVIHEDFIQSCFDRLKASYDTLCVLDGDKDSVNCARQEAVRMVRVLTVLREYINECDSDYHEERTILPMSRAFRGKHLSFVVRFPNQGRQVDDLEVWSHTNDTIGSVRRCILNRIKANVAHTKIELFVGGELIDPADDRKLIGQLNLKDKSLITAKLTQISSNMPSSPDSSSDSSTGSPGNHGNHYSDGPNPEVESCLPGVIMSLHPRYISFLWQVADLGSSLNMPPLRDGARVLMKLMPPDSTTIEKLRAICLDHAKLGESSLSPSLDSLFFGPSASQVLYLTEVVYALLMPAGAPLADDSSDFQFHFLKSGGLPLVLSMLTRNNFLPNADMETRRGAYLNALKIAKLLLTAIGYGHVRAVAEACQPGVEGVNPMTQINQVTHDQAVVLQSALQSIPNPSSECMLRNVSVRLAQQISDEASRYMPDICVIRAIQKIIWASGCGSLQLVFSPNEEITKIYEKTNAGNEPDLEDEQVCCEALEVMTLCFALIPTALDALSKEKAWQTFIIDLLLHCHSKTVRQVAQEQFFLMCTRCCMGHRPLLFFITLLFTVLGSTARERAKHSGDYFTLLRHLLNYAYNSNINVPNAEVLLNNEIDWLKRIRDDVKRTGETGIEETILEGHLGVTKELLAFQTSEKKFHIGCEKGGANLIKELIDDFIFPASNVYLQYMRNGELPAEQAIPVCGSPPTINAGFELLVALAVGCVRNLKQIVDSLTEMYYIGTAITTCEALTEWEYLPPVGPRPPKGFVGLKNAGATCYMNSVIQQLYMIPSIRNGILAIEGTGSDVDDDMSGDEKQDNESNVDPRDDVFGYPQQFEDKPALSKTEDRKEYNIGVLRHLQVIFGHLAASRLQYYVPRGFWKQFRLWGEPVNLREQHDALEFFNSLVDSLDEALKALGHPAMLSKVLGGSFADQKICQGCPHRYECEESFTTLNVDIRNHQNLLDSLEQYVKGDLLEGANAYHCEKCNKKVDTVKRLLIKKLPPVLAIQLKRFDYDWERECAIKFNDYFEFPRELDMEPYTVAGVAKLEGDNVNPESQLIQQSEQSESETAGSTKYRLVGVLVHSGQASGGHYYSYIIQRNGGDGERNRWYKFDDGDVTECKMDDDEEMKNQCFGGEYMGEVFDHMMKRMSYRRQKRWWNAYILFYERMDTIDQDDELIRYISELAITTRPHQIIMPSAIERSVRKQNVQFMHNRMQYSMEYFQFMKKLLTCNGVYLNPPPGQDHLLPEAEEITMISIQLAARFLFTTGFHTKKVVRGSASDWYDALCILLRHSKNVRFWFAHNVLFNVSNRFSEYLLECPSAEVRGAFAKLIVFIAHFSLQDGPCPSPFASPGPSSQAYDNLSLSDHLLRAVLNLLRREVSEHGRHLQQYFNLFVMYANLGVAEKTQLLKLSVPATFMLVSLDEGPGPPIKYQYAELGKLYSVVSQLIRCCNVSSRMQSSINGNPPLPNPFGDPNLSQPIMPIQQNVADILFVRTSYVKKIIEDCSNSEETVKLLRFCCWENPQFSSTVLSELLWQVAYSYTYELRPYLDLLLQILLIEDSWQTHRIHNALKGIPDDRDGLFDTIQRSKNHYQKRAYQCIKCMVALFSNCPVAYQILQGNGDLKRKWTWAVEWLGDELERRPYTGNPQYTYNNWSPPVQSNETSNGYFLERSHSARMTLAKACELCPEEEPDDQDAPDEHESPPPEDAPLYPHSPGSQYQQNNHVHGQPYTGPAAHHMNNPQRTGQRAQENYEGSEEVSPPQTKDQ

CCCC(NC(=O)/C(C#N)=C/c1nc(Cl)ccc1Cl)c1ccc(OCCN2CCOCC2)cc1 (centres unmarked) [Compound G9, (E)-2-Cyano-3-(3,6-dichloropyridin-2-yl)-N-(1-(4-(2-morpholinoethoxy)phenyl)butyl)acrylamide]
Mcl-1 protein levels in MM1.S tumors [1]: reduces Mcl-1 protein levels
Usp9x DUB activity in MM1.S tumors [1]: reduces Usp9x DUB activity
apoptosis (PARP cleavage) in MM1.S tumors [1]: activates apoptosis
caspase activity (PARP cleavage) ([2]; MM1.ST cells, 5 μM): activation of caspase activity
Mcl-1 level ([2]; MM1.ST or PCL cells, 5 μM): reduction in Mcl-1
level of Mcl-1 ([2]; Z138 lymphoma cells, 1.25, 2.5 and 5 μM, 4 hours): reduce the level of a downstream target of Usp9x
Usp9xCD inhibitory activity compared to WP1130 [3]: superior inhibitors of Usp9xCD
solubility compared with earlier inhibitor [4]: improved solubility
solubility ([4]; aqueous medium (not specified further)): 19.8 µM (≈ 9.97 µg/mL)
antiviral activity against murine norovirus [5]: exhibits antiviral activity against murine norovirus
antiviral activity against a variety of viruses [6]: mild to high antiviral activity; also recorded: antiviral activity against Sindbis virus and La Crosse virus
